Assay results reported in ChEMBL document CHEMBL3351479, “Novel acylureidoindolin-2-one derivatives as dual Aurora B/FLT3 inhibitors for the treatment of acute myeloid leukemia” (Eur J Med Chem, 2014).

Experiments:
THP-1 [1] = assay: Cytotoxicity against human THP1 cells assessed as cell viability after 48 hrs by MTT assay; format: functional, cell-based
MOLM-13 [2] = assay: Cytotoxicity against human MOLM13 cells assessed as cell viability after 48 hrs by MTT assay; format: functional, cell-based; conditions: MOLM-13, 48 h
[3] = Ratio of solubility in PBS to solubility in DMSO; format: physicochemical
[4] = Permeability coefficient of the compound at pH 7.4 by PAMPA-GIT assay; format: ADME; conditions: read-out: Peff
[5] = Cytotoxicity against human HL60 cells assessed as cell viability after 48 hrs by MTT assay; format: functional, cell-based; conditions: HL-60, 48 h
MV4-11 [6] = assay: Cytotoxicity against human MV4-11 cells assessed as cell viability after 48 hrs by MTT assay; format: functional, cell-based
THP-1 [7] = assay: Cytotoxicity against human THP1 cells assessed as cell viability at 1 uM after 48 hrs by MTT assay; format: functional; conditions: THP-1, 48 h, read-out: Activity
MV4-11 [8] = assay: Cytotoxicity against human MV4-11 cells assessed as cell viability at 1 uM after 48 hrs by MTT assay; format: functional; conditions: MV4-11, 48 h, read-out: Activity
[9] = Cytotoxicity against human HL60 cells assessed as cell viability at 1 uM after 48 hrs by MTT assay; format: functional; conditions: HL-60, 48 h, read-out: Activity
Aurora kinase B [10] = target: T1, Aurora kinase B (Homo sapiens, UniProt Q96GD4); assay: Inhibition of Aurora B (unknown origin) using HLRRASLG substrate
MOLM-13 [11] = assay: Cytotoxicity against human MOLM13 cells assessed as cell viability at 1 uM after 48 hrs by MTT assay; format: functional; conditions: MOLM-13, 48 h, read-out: Activity
[12] = target: T2, Receptor-type tyrosine-protein kinase FLT3 (Homo sapiens, UniProt P36888); assay: Inhibition of FLT3 (unknown origin) using EAIYAAPFAKKK substrate
T2 sequence (P36888 whole entry): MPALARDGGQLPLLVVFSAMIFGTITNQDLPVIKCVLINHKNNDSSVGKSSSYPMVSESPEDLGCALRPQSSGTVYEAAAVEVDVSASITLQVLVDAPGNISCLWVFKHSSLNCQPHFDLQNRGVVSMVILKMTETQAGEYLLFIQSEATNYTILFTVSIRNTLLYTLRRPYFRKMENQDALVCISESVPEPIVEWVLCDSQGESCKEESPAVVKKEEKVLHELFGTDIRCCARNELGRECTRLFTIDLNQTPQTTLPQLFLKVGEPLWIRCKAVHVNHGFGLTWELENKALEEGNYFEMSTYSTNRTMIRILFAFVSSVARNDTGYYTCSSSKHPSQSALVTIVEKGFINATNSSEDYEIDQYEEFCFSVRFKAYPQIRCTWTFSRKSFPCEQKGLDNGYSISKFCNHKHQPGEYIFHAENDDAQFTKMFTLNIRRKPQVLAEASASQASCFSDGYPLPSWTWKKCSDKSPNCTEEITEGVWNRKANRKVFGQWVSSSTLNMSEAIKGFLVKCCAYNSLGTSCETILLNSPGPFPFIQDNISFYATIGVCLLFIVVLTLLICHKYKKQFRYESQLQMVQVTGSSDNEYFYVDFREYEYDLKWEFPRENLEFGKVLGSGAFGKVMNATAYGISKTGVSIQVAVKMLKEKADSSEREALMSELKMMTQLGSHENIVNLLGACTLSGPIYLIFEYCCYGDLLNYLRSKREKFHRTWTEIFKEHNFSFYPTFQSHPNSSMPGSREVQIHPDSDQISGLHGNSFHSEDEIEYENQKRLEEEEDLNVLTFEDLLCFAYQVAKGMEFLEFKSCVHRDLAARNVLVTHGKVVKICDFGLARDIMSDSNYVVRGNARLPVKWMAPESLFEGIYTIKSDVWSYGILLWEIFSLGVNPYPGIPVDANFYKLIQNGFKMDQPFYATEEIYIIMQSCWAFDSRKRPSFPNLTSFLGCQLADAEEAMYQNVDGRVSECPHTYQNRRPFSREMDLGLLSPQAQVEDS

[13] = target: Aurora kinase C (Homo sapiens) (UniProt Q9UQB9); assay: Inhibition of Aurora C (unknown origin) at 1 uM
[14] = target: Aurora kinase A (Homo sapiens) (UniProt O14965); assay: Inhibition of Aurora A (unknown origin) at 1 uM
Aurora kinase B [15] = target: T1, Aurora kinase B; assay: Inhibition of Aurora B (unknown origin) using HLRRASLG substrate at 1 uM
[16] = target: Platelet-derived growth factor receptor alpha (Homo sapiens) (UniProt P16234); assay: Inhibition of PDGFRalpha (unknown origin) at 1 uM
[17] = target: Platelet-derived growth factor receptor beta (Homo sapiens) (UniProt P09619); assay: Inhibition of PDGFRbeta (unknown origin) at 1 uM
[18] = target: Receptor-type tyrosine-protein kinase FLT3 (Homo sapiens) (UniProt P36888); assay: Inhibition of FLT3 (unknown origin) using EAIYAAPFAKKK substrate at 1 uM

T1 sequence (Q96GD4 whole entry): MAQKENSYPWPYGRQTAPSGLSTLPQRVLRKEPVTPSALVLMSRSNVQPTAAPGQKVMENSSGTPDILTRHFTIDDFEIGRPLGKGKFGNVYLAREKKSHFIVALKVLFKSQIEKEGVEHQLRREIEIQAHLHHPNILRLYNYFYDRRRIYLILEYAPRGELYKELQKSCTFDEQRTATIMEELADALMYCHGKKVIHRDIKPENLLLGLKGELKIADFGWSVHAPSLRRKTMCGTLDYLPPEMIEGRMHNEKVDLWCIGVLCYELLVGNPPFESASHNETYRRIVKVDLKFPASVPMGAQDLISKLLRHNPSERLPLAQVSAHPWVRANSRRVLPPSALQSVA
Sequence of Platelet-derived growth factor receptor beta (Homo sapiens) (P09619 whole entry): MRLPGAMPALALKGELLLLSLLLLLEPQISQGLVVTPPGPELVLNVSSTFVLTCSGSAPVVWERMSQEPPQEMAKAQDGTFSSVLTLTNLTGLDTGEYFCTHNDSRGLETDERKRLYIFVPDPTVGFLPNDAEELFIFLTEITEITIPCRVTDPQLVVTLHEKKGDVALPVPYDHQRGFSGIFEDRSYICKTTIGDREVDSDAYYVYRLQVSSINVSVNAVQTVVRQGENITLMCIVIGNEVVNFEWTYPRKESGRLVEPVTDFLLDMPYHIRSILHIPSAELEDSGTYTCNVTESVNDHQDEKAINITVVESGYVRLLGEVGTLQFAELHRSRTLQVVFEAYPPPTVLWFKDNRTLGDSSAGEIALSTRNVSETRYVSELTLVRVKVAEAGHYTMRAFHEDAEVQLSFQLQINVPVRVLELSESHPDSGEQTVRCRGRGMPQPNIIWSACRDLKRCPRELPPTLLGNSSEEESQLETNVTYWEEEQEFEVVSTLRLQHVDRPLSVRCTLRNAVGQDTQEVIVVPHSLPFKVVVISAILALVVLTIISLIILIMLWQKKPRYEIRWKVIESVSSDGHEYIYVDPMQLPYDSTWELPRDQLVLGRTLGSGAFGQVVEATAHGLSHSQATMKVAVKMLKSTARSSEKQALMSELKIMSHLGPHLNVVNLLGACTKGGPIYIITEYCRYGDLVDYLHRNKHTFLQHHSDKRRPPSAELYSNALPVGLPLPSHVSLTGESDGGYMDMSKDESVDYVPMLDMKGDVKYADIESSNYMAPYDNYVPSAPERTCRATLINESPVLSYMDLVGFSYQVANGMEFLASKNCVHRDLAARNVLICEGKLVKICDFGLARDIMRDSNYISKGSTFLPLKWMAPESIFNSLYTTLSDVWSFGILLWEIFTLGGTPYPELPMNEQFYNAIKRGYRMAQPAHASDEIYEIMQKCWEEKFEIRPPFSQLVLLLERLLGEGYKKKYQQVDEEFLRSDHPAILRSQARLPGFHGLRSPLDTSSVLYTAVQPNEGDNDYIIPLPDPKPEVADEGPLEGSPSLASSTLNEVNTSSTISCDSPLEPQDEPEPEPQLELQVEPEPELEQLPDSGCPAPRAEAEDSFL
Sequence of Aurora kinase C (Homo sapiens) (Q9UQB9 whole entry): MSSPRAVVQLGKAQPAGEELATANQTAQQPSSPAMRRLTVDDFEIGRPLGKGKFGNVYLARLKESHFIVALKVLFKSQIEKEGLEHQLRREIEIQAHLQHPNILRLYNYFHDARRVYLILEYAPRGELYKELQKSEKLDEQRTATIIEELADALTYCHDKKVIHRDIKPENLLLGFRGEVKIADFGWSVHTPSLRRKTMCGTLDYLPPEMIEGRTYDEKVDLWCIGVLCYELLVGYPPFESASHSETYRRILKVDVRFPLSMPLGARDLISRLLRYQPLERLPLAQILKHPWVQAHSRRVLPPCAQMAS
Sequence of Platelet-derived growth factor receptor alpha (Homo sapiens) (P16234 whole entry): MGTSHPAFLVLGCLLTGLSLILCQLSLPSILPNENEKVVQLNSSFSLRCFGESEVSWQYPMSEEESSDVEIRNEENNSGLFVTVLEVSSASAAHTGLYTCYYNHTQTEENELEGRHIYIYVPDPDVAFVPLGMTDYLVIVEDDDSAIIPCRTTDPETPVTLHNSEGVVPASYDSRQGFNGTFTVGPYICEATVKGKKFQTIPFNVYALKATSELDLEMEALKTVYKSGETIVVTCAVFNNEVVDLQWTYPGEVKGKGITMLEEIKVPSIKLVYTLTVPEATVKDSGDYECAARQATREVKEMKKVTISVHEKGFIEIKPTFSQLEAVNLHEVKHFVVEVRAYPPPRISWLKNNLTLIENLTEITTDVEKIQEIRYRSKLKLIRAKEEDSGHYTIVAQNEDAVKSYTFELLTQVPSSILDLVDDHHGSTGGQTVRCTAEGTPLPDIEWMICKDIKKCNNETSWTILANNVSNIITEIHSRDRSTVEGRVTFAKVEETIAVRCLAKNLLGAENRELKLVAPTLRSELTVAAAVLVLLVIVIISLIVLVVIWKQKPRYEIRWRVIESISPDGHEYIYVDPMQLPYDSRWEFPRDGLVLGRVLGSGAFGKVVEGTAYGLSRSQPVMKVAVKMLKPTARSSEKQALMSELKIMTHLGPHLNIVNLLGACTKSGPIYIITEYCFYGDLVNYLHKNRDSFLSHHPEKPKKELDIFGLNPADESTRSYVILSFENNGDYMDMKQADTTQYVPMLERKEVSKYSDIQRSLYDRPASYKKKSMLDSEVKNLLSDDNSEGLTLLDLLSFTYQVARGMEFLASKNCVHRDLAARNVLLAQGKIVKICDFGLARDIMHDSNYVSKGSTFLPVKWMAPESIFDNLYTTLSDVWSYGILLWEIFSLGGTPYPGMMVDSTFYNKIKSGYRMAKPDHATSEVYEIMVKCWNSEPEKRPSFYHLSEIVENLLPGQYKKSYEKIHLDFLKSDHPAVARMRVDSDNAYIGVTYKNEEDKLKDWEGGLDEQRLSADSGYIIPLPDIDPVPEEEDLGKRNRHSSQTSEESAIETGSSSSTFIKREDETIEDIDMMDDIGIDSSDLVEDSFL
Sequence of Aurora kinase A (Homo sapiens) (O14965 whole entry): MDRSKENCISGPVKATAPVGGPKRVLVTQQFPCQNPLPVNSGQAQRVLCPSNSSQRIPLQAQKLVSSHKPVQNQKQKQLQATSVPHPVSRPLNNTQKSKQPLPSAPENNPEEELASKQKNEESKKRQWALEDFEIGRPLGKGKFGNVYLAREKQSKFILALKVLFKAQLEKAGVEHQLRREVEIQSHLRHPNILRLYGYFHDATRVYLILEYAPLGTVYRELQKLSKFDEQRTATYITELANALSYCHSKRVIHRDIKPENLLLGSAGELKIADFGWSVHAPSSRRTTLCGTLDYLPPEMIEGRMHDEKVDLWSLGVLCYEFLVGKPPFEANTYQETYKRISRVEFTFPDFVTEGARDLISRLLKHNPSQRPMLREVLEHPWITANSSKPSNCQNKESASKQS

SMILES | Ratio [3] | Papp [4] [×10⁻⁶ cm/s] | IC50 (Aurora kinase B [10]) [nM] | IC50 [12] [nM] | inhibition [13] [%] | inhibition [14] [%] | inhibition (Aurora kinase B [15]) [%] | inhibition [16] [%] | inhibition [17] [%] | inhibition [18] [%] | IC50 (THP-1 [1]; Homo sapiens, THP-1, 48 h) [nM] | IC50 (MOLM-13 [2]) [nM] | IC50 [5] [nM] | IC50 (MV4-11 [6]; Homo sapiens, MV4-11, 48 h) [nM] | IC50 (THP-1 [1]; thp-1) [nM] | IC50 (MV4-11 [6]; mv4-11) [nM] | viability at 1 µM (THP-1 [7]) [%] | viability at 1 µM (MV4-11 [8]) [%] | viability at 1 µM [9] [%] | viability at 1 µM (MOLM-13 [11]) [%]
COc1ccc(C(=O)NC(=O)Nc2cc3c(cc2F)/C(=C/c2[nH]c(C)c(C(=O)O)c2C)C(=O)N3)cc1 | 0.58 | 2.46 |  |  |  |  |  |  |  |  | 81.2 | 25.3 | 32.2 | 34.6 |  |  |  |  |  | 
COc1ccc(C(=O)NC(=O)Nc2ccc3c(c2)NC(=O)/C3=C\c2[nH]c(C)c(C(=O)NCCN3CCCC3)c2C)c(F)c1.CS(=O)(=O)O | 0.97 |  |  |  |  |  |  |  |  |  |  |  |  |  | 32.2 | 2 |  |  |  | 
COc1ccc(C(=O)NC(=O)Nc2ccc3c(c2)NC(=O)/C3=C\c2[nH]c(C)c(-c3ccccc3)c2C)cc1 |  |  | > 1000 |  |  |  |  |  |  |  | > 500 | > 500 | > 500 | > 500 |  |  | 73 | 51 | 65 | 51
COc1ccc(C(=O)NC(=O)Nc2ccc3c(c2)NC(=O)/C3=C\c2[nH]c(C)c(C(=O)O)c2C)c(F)c1 | 0.58 | 2.49 |  |  |  |  |  |  |  |  | 79.5 | 5.2 | 6.4 | 5.3 |  |  |  |  |  | 
COc1ccc(C(=O)NC(=O)Nc2ccc3c(c2)NC(=O)/C3=C\c2ccc[nH]2)cc1 | 0.37 | 0.67 |  |  | 17 | 11 | 94 | 30 | 35 |  | 68.4 | 18.1 | 29.5 | 29.3 |  |  |  |  |  | 
CCOC(=O)c1c(C)[nH]c(/C=C2\C(=O)Nc3cc(NC(=O)NC(=O)c4ccc(OC)cc4F)ccc32)c1C |  |  | > 1000 | > 1000 |  |  |  |  |  |  | 74 | 9.8 | 13 | 11.3 |  |  |  |  |  | 
COc1ccc(C(=O)NC(=O)Nc2ccc3c(c2)NC(=O)/C3=C\c2[nH]c(C)c(C(=O)O)c2C)cc1 | 0.32 | 0.23 |  |  |  |  |  |  |  |  | 78.4 | 9 | 15.8 | 12 |  |  |  |  |  | 
COc1ccc(C(=O)NC(=O)Nc2ccc3c(c2)NC(=O)/C3=C\c2[nH]c(C)c(CCC(=O)O)c2C)cc1 | 0.57 |  |  |  |  |  |  |  |  |  | 52.8 | 5.2 | 6.4 | 5.3 |  |  |  |  |  | 
COc1ccc(C(=O)NC(=O)Nc2ccc3c(c2)NC(=O)/C3=C/c2ccccn2)cc1 |  |  |  | > 1000 |  |  | 29 |  |  |  | > 500 | > 500 | > 500 | > 500 |  |  | 85 | 60 | 80 | 62

More lines, main results first:

Ratio [3] | Papp [4] [×10⁻⁶ cm/s] | IC50 (Aurora kinase B [10]) [nM] | IC50 [12] [nM] | inhibition [13] [%] | inhibition [14] [%] | inhibition (Aurora kinase B [15]) [%] | inhibition [16] [%] | inhibition [17] [%] | inhibition [18] [%] | SMILES | IC50 (THP-1 [1]; Homo sapiens, THP-1, 48 h) [nM] | IC50 (MOLM-13 [2]) [nM] | IC50 [5] [nM] | IC50 (MV4-11 [6]; Homo sapiens, MV4-11, 48 h) [nM] | IC50 (THP-1 [1]; thp-1) [nM] | IC50 (MV4-11 [6]; mv4-11) [nM] | viability at 1 µM (THP-1 [7]) [%] | viability at 1 µM (MV4-11 [8]) [%] | viability at 1 µM [9] [%] | viability at 1 µM (MOLM-13 [11]) [%]
 |  | > 1000 | > 1000 |  |  |  |  |  |  | COc1ccc(C(=O)NC(=O)Nc2ccc3c(c2)NC(=O)/C3=C\c2ccc(C(=O)O)[nH]2)cc1 | > 500 | > 500 | > 500 | > 500 |  |  | 65 | 62 | 65 | 55
 |  |  |  |  |  | 73 |  |  | 21 | COc1ccc(C(=O)NC(=O)Nc2ccc3c(c2)NC(=O)/C3=C/c2cccc(C(=O)O)c2)cc1 | > 500 | 291 | > 500 | > 500 |  |  | 71 | 57 | 59 | 53
 |  | 21.5 | > 1000 |  |  |  |  |  |  | COc1ccc(C(=O)NC(=O)Nc2ccc3c(c2)NC(=O)/C3=C/c2cccs2)cc1 | 375 | > 500 | 300 | 292 |  |  |  |  |  | 
 |  |  |  |  |  | 13 |  |  | 6 | COc1ccc(C(=O)NC(=O)Nc2ccc3c(c2)NC(=O)/C3=C/c2ccc(Cl)cc2)cc1 | > 500 | > 500 | > 500 | > 500 |  |  | 83 | 97 | 77 | 101
 |  |  |  |  |  | 61 |  |  | 34 | COc1ccc(C(=O)NC(=O)Nc2ccc3c(c2)NC(=O)/C3=C/c2ccccc2)cc1 | > 500 | > 500 | > 500 | > 500 |  |  | 76 | 64 | 64 | 73
 |  |  |  |  |  | 9 |  |  | 19 | COc1ccc(C(=O)NC(=O)Nc2ccc3c(c2)NC(=O)/C3=C/c2ccc(Cl)c(Cl)c2)cc1 | > 500 | > 500 | > 500 | > 500 |  |  | 68 | 71 | 63 | 69
